For the experiment, the system named is HFB (human fibroblast). Nature of the experiment: Survival rate of cells after freeze-preservation at −80° C. for 24 hours, trypan blue (Example 1). Particulars: concentration 50 mM (foregoing studies). Type of experiment: cell-based. The method, then: 1. Cells used: Hela (human cervical cancer), OVCAR-3 (human ovarian cancer), HuH-7 (human liver cancer), HaCaT (human skin keratinocyte), HFB (human fibroblast) and NIH3T3 (mouse fibroblast). Saccharides D-allose and the like were added to culture medium, Cell Banker (commercially available preservative solution) and DMSO at concentrations of 25 mM and 50 mM. Monosaccharides such as D-glucose, D-fructose, D-mannose and D-galactose which are present in nature in large quantities and D-allose, D-psicose, D-altrose, allitol, D-talitol and L-sorbose as rare sugars were used. Further, trehalose as disaccharide was used. The cells were preserved for 24 hours by being frozen at −80° C. 1) Survival rate of cells: One day later, the cells were thawed, and the survival rate was estimated by trypan blue dying method.

Take `O=C[C@H](O)[C@H](O)[C@H](O)[C@H](O)CO` [D-allose]: the “improvement effect as preservative agent” value is listed as “no great improvement effect was obtained”.

The record behind these values is patent US9237744B2, “Preservative solution for cells, tissues and organs containing rare sugar and preservative method thereof” (NATIONAL UNIVERSITY CORPORATION KAGAWA UNIVERSITY, priority 2004, dated 2016).
